Assay results taken from ChEMBL document CHEMBL1136341, “Synthesis and evaluation of chiral bicyclic proline FKBP12 ligands” (Bioorg Med Chem Lett, 2003).

Test: In vitro binding affinity towards FKBP12 domain of peptidyl-propyl isomerase (PPIase)

## O=C(OCCCc1ccccc1)[C@@H]1C2CCC(C2)N1S(=O)(=O)c1ccccc1 (stereo partly specified)
  IC50: 650 nM

## CCC(C)(C)C(=O)C(=O)N1C2CCC(C2)[C@@H]1C(=O)SCCC(c1ccccc1)c1ccccc1 (stereo partly specified)
  IC50: > 25000 nM

## CCC(C)(C)C(=O)C(=O)N1C2CCC(C2)[C@@H]1C(=O)OCCCc1ccccc1 (stereo partly specified)
  IC50: > 25000 nM

## CCC(C)(C)C(=O)C(=O)N1C2CCC(C2)[C@@H]1C(=O)OCCCCc1ccccc1 (stereo partly specified)
  IC50: 5100 nM

## CCC(C)(C)C(=O)C(=O)N1C2CCC(C2)[C@@H]1C(=O)OCCCc1ccncc1 (stereo partly specified)
  IC50: > 25000 nM

## O=C1CC2CCCC(Sc3ccccc3)(C1)C2 (stereo unspecified)
  IC50: 9.2 nM

## CCC(C)(C)C(=O)C(=O)N1C2CCC(C2)[C@@H]1C(=O)SCCCc1ccccc1 (stereo partly specified)
  IC50: 22000 nM

## CCC(C)(C)C(=O)C(=O)N1C2CCC(C2)[C@H]1C(=O)OCCCc1ccncc1 (stereo partly specified)
  IC50: 15000 nM

## O=C(SCCCc1ccccc1)[C@@H]1C2CCC(C2)N1S(=O)(=O)c1ccccc1 (stereo partly specified)
  IC50: 910 nM

## COc1cc(C(=O)C(=O)N2C3CCCC2C(=O)OCCCCOC3=O)cc(OC)c1OC
  IC50: 0.28 nM

## CCC(C)(C)C(=O)C(=O)N1C2CCC(C2)[C@H]1C(=O)SCCC(c1ccccc1)c1ccccc1 (stereo partly specified)
  IC50: 980 nM

## CCC(C)(C)C(=O)C(=O)N1C2CCC(C2)[C@H]1C(=O)OCCCc1ccccc1 (stereo partly specified)
  IC50: 670 nM

## O=C(SCCCc1ccccc1)[C@@H]1C2CCC(C2)N1S(=O)(=O)Cc1ccccc1 (stereo partly specified)
  IC50: 720 nM

## CCC(C)(C)C(=O)C(=O)N1C2CCC(C2)[C@H]1C(=O)OCCCCc1ccccc1 (stereo partly specified)
  IC50: 710 nM

## O=C(OCCCc1ccccc1)[C@@H]1C2CCC(C2)N1S(=O)(=O)Cc1ccccc1 (stereo partly specified)
  IC50: 1300 nM

## CCC(C)(C)C(=O)C(=O)N1C2CCC(C2)[C@H]1C(=O)SCCCc1ccccc1 (stereo partly specified)
  IC50: 2300 nM
